One data set concerns MCF‐7 spheroids. Kind of data set: Spheroid phototoxicity, 470 nm LED, CellTiter-Glo 3D. In kind it is cell-based. As to conditions: MCF‐7 3D (spheroids); for IC50: Homo sapiens, MCF7, light or radiation study, 470 nm LED, 5±0.54 J/cm^2 (2.2 mW/cm^2 for 0.5 h); for Photo Index (PI), ratio of dark IC50 to light IC50: 5 J/cm^2, 470 nm LED. The method, then: 3D Cell Studies: Toxicity Assays
Spheroids were seeded in a clear BIOFLOAT™ round bottom 96 well plate (Sarstedt) at 2x10^4 cells per well, centrifuged using the […] for 5 minutes at 700 rpm and allowed to grow and compact for 96 hours. A 2X concentrated solution of B2P, B2PI, MB2P or MB2PI was added in a 1:1 ratio (BODIPY:media) to each well of the 96 well plate, which contained 50 µL phenol red free media, and incubated for 24 h. Prior to irradiation 90% of the media/Ru solution was removed, replaced with fresh phenol red media to dilute the remaining BODIPY (multiple dilution steps, more required for 15 µM and above), and brought to a total volume of 100 µL. Phototoxicity studies in […] spheroids were performed as per the cell monolayer protocol with an irradiation dose of 5 J/cm2 using a 470 nm LED.
Control studies with untreated spheroids confirmed 17 J/cm2 irradiation dose was toxic to spheroids, however the spheroids remained viable after 5 J/cm2 irradiation. CellTiter-Glo 3D cell viability assay (Promega) was used to assess spheroid viability and performed as per the manufacturer’s protocol, where the CellTiter-Glo 3D reagent was added to the spheroid wells
(In ATP-based viability assays light output follows the ATP content of the culture.)

The subject of the next data set is CHO cells. Nature of the data set: Cellular uptake and co-localisation by confocal microscopy. It counts as cell-based, Chinese Hamster. As to conditions: ER Tracker 1 µM, 45 min. On the procedure: The intracellular uptake of the BODIPY derivatives was assessed in two mammalian cell lines, CHO (non‐cancer) and MCF‐7 (cancer). […] B2P and B2PI were studied following 4 h and 17 h incubation in MCF‐7 cells with 10 μM of each BODIPY derivative. A 17 h incubation was selected to allow for adequate cell uptake of the complex, ensuring sufficient brightness for confocal imaging while minimising cell toxicity.
Across all four compounds uptake of the BODIPYs led to extremely bright and highly punctate staining from within the cells. As all of the BODIPY‐perylene probes emit minimally from aqueous media including cell culture media (Figure S20) the bright emission is attributed to localisation of the complex to non‐aqueous domains, i. e. organelle membranes or to lipid droplets (LDs). To identify which, co‐localisation studies with targeted probes were completed. CHO and MCF‐7 cells were treated with B2P, B2PI, MB2P or MB2PI and co‐stained with specific organelle markers including LD probes; PyLa−C17Cer and BODIPY 493/503, an endoplasmic reticulum stain; ER Tracker Blue‐White and a lysosomal stain; LysoTracker Deep Red. Pyla‐C17Cer was previously published and localises in both the ER and LDs.[41] Cellular uptake of B2PI was recently reported in MCF‐7 cells, though localisation was not explored.[25]
MCF‐7 and CHO cells were treated with B2P, MB2P, B2PI or MB2PI for 17 h and co‐stained with a number of dyes for co‐staining including LysoTracker Deep Red, ER Tracker Blue/White, PyLa−C17Cer, BODIPY 493/503 and H2DCFDA. Cells were imaged in phenol red free media using a Leica DMi8 confocal microscope with a 63x or 100x oil immersion lens and a heated state at 37 °C.
Uptake in Live Cell Monolayers
CHO cells were incubated in 75cm2 cell culture flasks (Corning) with DMEM/F-12 Ham medium (Sigma-Aldrich) with L-glutamine and sodium bicarbonate supplemented with 10% fetal bovine serum (FBS) (Gibco) and 1% penicillin-streptomycin (Sigma-Aldrich). MCF-7 cells were incubated in 25cm2 cell culture flasks with RPMI-1640 medium (Sigma-Aldrich) with L-glutamine and sodium bicarbonate supplemented with 10% fetal bovine serum (FBS, Gibco) and 1% penicillin-streptomycin. Cells were incubated at 37 °C with 5% CO2 and detached from the flask at 90% confluency using a 1X Trypsin-EDTA solution (Sigma-Aldrich). Cells were counted using the EVE automated cell counter (NanoEnTek) and seeded at 1 x 10^5 cells per mL in a 4 or 8 chamber µ-slide (ibidi) for cell imaging and left for 24 h at 37 °C. Cells were rinsed with 1X PBS (Gibco) and stained with B2P or B2PI at 10 µM and MB2P or MB2PI at 30 µM for 17 h. Cells were washed twice with PBS and covered with phenol red free RPMI medium (Gibco) for imaging. […]

Broadly, the IC50 is the concentration needed to halve the response being measured. The low end stands for greater potency in that assay, the high end for weaker potency in that assay.

“And” between values parts separate entries of the source, which are not always exact repeats. Identical values can stand only once. Where only a bound is given, the exact number is not on record here.

`CC1=C(c2ccc3c4cccc5cccc(c6cccc2c63)c54)C(C)=[N+]2C1=C(c1c(C)cc(C)cc1C)c1c(C)cc(C)n1[B-]2(F)F` [MB2P]: in the data set with MCF‐7 spheroids, the midpoint of inhibition, the IC50, lay at 6.26 µM and the “Photo Index (PI), ratio of dark IC50 to light IC50” value (“Photo Index (PI), ratio” below) is over 8. Further, in the data set on CHO cells, the “Pearson Coefficient (r) with ER Tracker Blue/White” value is 0.56 ± 0.02 and ~0.5.

As to `CC1=C(c2ccc3c4cccc5cccc(c6cccc2c63)c54)C(C)=[N+]2C1=C(c1c(C)cc(C)cc1C)c1c(C)c(I)c(C)n1[B-]2(F)F` [MB2PI], in the data set with MCF‐7 spheroids, the midpoint of inhibition, the IC50, lay at 5.62 µM; the “Photo Index (PI), ratio” value was > 8.9 and > 8. Further, in the data set on CHO cells, the “Pearson Coefficient (r) with ER Tracker Blue/White” value is 0.46 ± 0.01 and ~0.5.

In the case of `CC1=CC(C)=[N+]2C1=C(c1ccccc1)c1c(C)c(-c3ccc4c5cccc6cccc(c7cccc3c74)c65)c(C)n1[B-]2(F)F` [B2P], in the data set with MCF‐7 spheroids, the IC50 was 6.91 µM and the “Photo Index (PI), ratio” value was 6.6. In addition, the “Pearson Coefficient (r) with ER Tracker Blue/White” value in the data set on CHO cells turned out to be 0.17 ± 0.06.

As to `CC1=C(I)C(C)=[N+]2C1=C(c1ccccc1)c1c(C)c(-c3ccc4c5cccc6cccc(c7cccc3c74)c65)c(C)n1[B-]2(F)F` [B2PI], in the data set with MCF‐7 spheroids, the IC50 was 7.65 µM and the “Photo Index (PI), ratio” value is recorded as 5.7. Moreover, in the data set on CHO cells, the “Pearson Coefficient (r) with ER Tracker Blue/White” value is 0.46 ± 0.04 and ~0.5.

The record behind these values is publication PMC11653243, “Enhancing Phototoxicity in BODIPY‐Perylene Charge Transfer Dyads by Combined Iodination and Mesylation” (Chemistry (Weinheim an Der Bergstrasse, Germany), 2024).
